Measured values as given in US8101792B2, “Compounds isolated from Antrodia cinnamomea and use thereof” (Simpson Biotech Co., Ltd., priority 2007, dated 2012).
Like-named read-outs stand apart in the source and are kept apart here. Each block holds one compound with its values, some of them ahead of it.

How the values were obtained:
[1] = Identification of metabolites in rat feces, bile, plasma and urine by LC/MS-MS after administration of Antrodin C; assay type: in vivo
Description: The metabolites in feces, bile and plasma were analyzed by LC/MS-MS. The LC/MS-MS equipment comprised a column containing TSK gel ODS-80 Ts (particle size, 5 μm; 4.6×150 mm i.d., Tosoh Co., Tokyo, Japan). Samples were eluted through the column with 0.1% AcOH and acetonitrile (35:65) at a flow rate of 1 ml/min at 30° C. The standard negative ion mode was selected under the following conditions: full scan range, 50-800 m/z; scan resolution, 13000 m/z/sec; nebulizer, 50.0 psi; dry gas, 10.0 l/min; dry temperature, 360° C. Full scanning in the region of m/z 50 to 600 assigned several peaks to Antrodin C and the metabolites in the […] when compared with those of blank samples (FIG. 3). […] Comparing to standard materials and synthesized compounds, the peak in the MS profile at m/z 328 [M-H]^− with retention time (tR)=8.2 min was derived from Antrodin C (MW 329), and M1 (m/z 331 [M-H]^−, tR=4.4 min) was dicarboxylic acid by hydrolysis of Antrodin C; M2 and M3 (m/z 345 [M-H]^−, tR=7.7 and 8.4 min), which were 14 larger than those of M1, were two kinds of monomethyl esters of M1; M4 (m/z 313 [M-H]^−, tR=21.6 min) was Antrodin A and M5 (m/z 312 [M-H]^−, tR=11.5 min) was Antrodin B. The structures of Antrodin C and its metabolites were shown in FIG. 5.

[2] = test system: rat (RIB) or human (HIB) intestinal bacteria; assay: Metabolism of Antrodin C and metabolites by intestinal bacteria in vitro; assay type: in vitro ADME
Description: Mixtures of rat (RIB) or human (HIB) intestinal bacteria (5 g each) prepared as described (Xie L H, et al. 2003 Biol Pharm Bull 51: 378-384), together with Antrodin C (5 mg) dissolved in Tween 20 (0.5 ml), M1 (5 mg) dissolved in water (1.0 ml) or rat bile samples (10 ml) with metabolites M2-M4, which were collected after oral administration of Antrodin C, were added to GAM broth (50 ml), and anaerobically incubated at 37° C. for 3 d. The incubation mixture was extracted with 3 volumes of acetonitrile, and then passed through a 0.45 μm filter. […] Moreover, the metabolites (M2-M4) in bile samples, which were collected after oral administration of Antrodin C in rats, could absolutely transferred to M1 after 30 min incubation.

[3] = test system: hepatitis model induced by LPS; assay: Hepatitis model induced by LPS; settings: in vivo
LLC cells = settings: cited from earlier work
[4] = Pharmacokinetics of M1 in rat bile after P.O. and I.V. administration of Antrodin C (PAD-HPLC); settings: for Accumulated excretion ratio: rat bile
Description: (§1) Male Wistar rats (9 weeks old) purchased from SLC Co. (Hamamastu, Japan), were fed with standard laboratory chow for one week, fasted overnight and given free access to water before drug administration. […] The animals were light anesthetized with diethyl ether during surgical procedures. Bile samples (n=5) was collected by cannulating a polyethylene tube (PE-10) into the rat bile duct at intervals of 0, 0.25, 0.5, 1, 2, 4, 8, 12, 24, 36 and 48 h after oral (50 mg/kg) and intravenous (10 mg/kg) administration of Antrodin C. […] The blood samples were centrifuged at 8000×g for 15 min to separate the plasma, and then all samples were stored at −20° C. for later analysis.
(§2) Thawed urine and bile samples (0.5 ml) dissolved in 3 volumes of acetonitrile, and then centrifuged at 8000×g for 15 min. The supernatant was passed through a 0.45 μm Millipore syringe filter (Nihon Millipore, Tokyo, Japan) for LC/MS-MS analysis. […] After treating the bile sample as described above, the amount of M1 was calculated by PAD-HPLC.
(§3) The concentration-time data in rat bile (n=5) were computer fitted using a program of Pharmacokineitics 3p97 edited by the Mathematics Pharmacological Committee, Chinese Pharmacological Society. The following pharmacokinetic parameters were obtained: half-time of absorption phase (t1/2 (Kα)) and half-time of elimination phase (t1/2 (Kβ)) in the bile samples after oral administration of Antrodin C at the dose of 50 mg/kg. The area under the concentration-time curve (AUC(i.v.) and AUC(p.o.)) was calculated by the statistical moment method of non-compartmental pharmacokinetic analysis. And then clearance (Clm, b) and absolute bioavailability (Fm, b) were calculated by the equations as following: Clm, b (ml/h·kg)=Dose(i.v.)/AUC(i.v.) and Fm, b (%)=AUC(p.o.)·Dose(i.v.)/[AUC(i.v.)·Dose(p.o.)]. Data were expressed mean and standard deviation (S.D.) for each group.

in vivo = settings: male, Wistar, rat
Description: as §1, §2, §3

[5] = Conversion of metabolites in bile samples diluted with water and incubated at 37° C.; assay type: physicochemical; settings: bile diluted by same volume water, 37° C. bath for 12 h
Description: as §2

SMILES: CC(C)=CCOc1ccc(C2=C(CC(C)C)C(=O)N(O)C2=O)cc1 [Antrodin C]
Metabolites found in feces ([1]; rat feces after administration of Antrodin C): M1-M3, M5 with original Antrodin C
Metabolites found in plasma ([1]; rat plasma after administration of Antrodin C): M1 with another unknown peak
Metabolites found in urine ([1]; rat urine after administration of Antrodin C): neither metabolite nor Antrodin C
Metabolism by intestinal bacteria [2]: converted to M5
Effect against hepatitis model induced by LPS [3]: protective effect
Cytotoxic activity against LLC cells (LLC cells): confirmed
Accumulated excretion ratio ([4]; I.V. 10 mg/kg Antrodin C): 56.85±13.40
Accumulated excretion ratio ([4]; P.O. 50 mg/kg Antrodin C): 5.46±1.62%
Main excretion pathway ([4]; rats): bile-feces pathway

SMILES: CC(C)=CCOc1ccc(/C(C(=O)O)=C(\CC(C)C)C(=O)O)cc1 [M1, (2Z)-2-isobutyl-3-{4-[(3-methylbut-2-en-1-yl)oxy]-phenyl}but-2-enedioic acid]
Metabolism by intestinal bacteria ([2]; GAM broth, anaerobic incubation at 37° C. for 3 d): not metabolized
bioavailability (in vivo): 19.4%
AUC (in vivo; iv, 10 mg/kg): 1680 µg·h/mL
clearance (in vivo; iv, 10 mg/kg): 5.96 mL/h/kg
AUC (in vivo; po, 50 mg/kg): 1610 µg·h/mL
half-life (in vivo; po, 50 mg/kg, t1/2 (kα), half-time of absorption phase): 0.95 h
half-life (in vivo; po, 50 mg/kg, t1/2 (kβ), half-time of elimination phase): 12.6 h

SMILES: CC(C)=CCOc1ccc(C2=C(CC(C)C)C(=O)NC2=O)cc1 [M5, Antrodin B]
Cytotoxic activity against LLC cells (LLC cells): confirmed

Other lines, results leading:

Conversion in diluted bile [5]: thoroughly converted to M1
SMILES: COC(=O)/C(=C(/CC(C)C)C(=O)O)c1ccc(OCC=C(C)C)cc1 [M2, (2Z)-2-isobutyl-3-{4-[(3-methylbut-2-en-1-yl)oxy]phenyl}but-2-enedioic acid 4-methyl ester]

Conversion in diluted bile [5]: thoroughly converted to M1
SMILES: COC(=O)/C(CC(C)C)=C(\C(=O)O)c1ccc(OCC=C(C)C)cc1 [M3, (2Z)-2-isobutyl-3-{4-[(3-methylbut-2-en-1-yl)oxy]phenyl}but-2-enedioic acid 1-methyl ester]

Conversion in diluted bile [5]: thoroughly converted to M1
SMILES: CC(C)=CCOc1ccc(C2=C(CC(C)C)C(=O)OC2=O)cc1 [M4, Antrodin A]
